Experimental data taken from the NIST ThermoML archive (doi:10.1021/je500513b).

Test: mn = molality of the nth substance listed, in mol/kg
Settings: for surface tension liquid-gas: Pendant drop shape; for electrical conductivity: 100 kPa, Liquid, Mettler Toledo inLab 710

CCCCCCCCCCCC[N+](C)(C)CCCCCC[N+](C)(C)CCCCCCCCCCCC.[Br-].[Br-] + O
Settings	electrical conductivity [S/m]	surface tension liquid-gas [mN/m]
298.15 K, m1 = 0.0001	–	61.45
298.15 K, m1 = 0.0002	–	53.1
298.15 K, m1 = 0.0004	–	47.33
298.15 K, m1 = 0.00056	0.0115	–
298.15 K, m1 = 0.00059	0.0123	–
298.15 K, m1 = 0.0006	–	42.35
298.15 K, m1 = 0.00063	0.0132	–
298.15 K, m1 = 0.00067	0.0138	–
298.15 K, m1 = 0.0007	–	40.01
298.15 K, m1 = 0.00071	0.0147	–
298.15 K, m1 = 0.00077	0.0159	–
298.15 K, m1 = 0.0008	–	38.21
298.15 K, m1 = 0.00083	0.017	–
298.15 K, m1 = 0.00085	–	38.13
298.15 K, m1 = 0.00087	0.0176	–
298.15 K, m1 = 0.0009	–	37.83
298.15 K, m1 = 0.00091	0.0182	–
298.15 K, m1 = 0.00095	0.0188	–
298.15 K, m1 = 0.001	0.0194	37.53
298.15 K, m1 = 0.00105	0.02	–
298.15 K, m1 = 0.0011	–	37.34
298.15 K, m1 = 0.00111	0.0206	–
298.15 K, m1 = 0.00118	0.0212	–
298.15 K, m1 = 0.0012	–	37.28
298.15 K, m1 = 0.00125	0.0219	–
298.15 K, m1 = 0.00133	0.0225	–
298.15 K, m1 = 0.00143	0.0231	–
298.15 K, m1 = 0.0015	–	37.38
298.15 K, m1 = 0.00154	0.024	–
298.15 K, m1 = 0.00167	0.0249	–
298.15 K, m1 = 0.00182	0.0259	–
298.15 K, m1 = 0.002	0.0269	37.23
303.15 K, m1 = 0.00057	0.0136	–
303.15 K, m1 = 0.00061	0.0143	–
303.15 K, m1 = 0.00065	0.0151	–
303.15 K, m1 = 0.00068	0.0158	–
303.15 K, m1 = 0.00071	0.0166	–
303.15 K, m1 = 0.00075	0.0173	–
303.15 K, m1 = 0.0008	0.0183	–
303.15 K, m1 = 0.00083	0.0189	–
303.15 K, m1 = 0.00087	0.0196	–
303.15 K, m1 = 0.00091	0.0202	–
303.15 K, m1 = 0.00095	0.0209	–
303.15 K, m1 = 0.001	0.0216	–
303.15 K, m1 = 0.00105	0.0223	–
303.15 K, m1 = 0.00111	0.023	–
303.15 K, m1 = 0.00118	0.0237	–
303.15 K, m1 = 0.00125	0.0244	–
303.15 K, m1 = 0.00133	0.0252	–
303.15 K, m1 = 0.00143	0.0261	–
303.15 K, m1 = 0.00154	0.027	–
303.15 K, m1 = 0.0016	0.0276	–
303.15 K, m1 = 0.00167	0.0281	–
303.15 K, m1 = 0.00174	0.0287	–
303.15 K, m1 = 0.00182	0.0293	–
303.15 K, m1 = 0.0019	0.03	–
303.15 K, m1 = 0.002	0.0307	–
308.15 K, m1 = 0.00065	0.0167	–
308.15 K, m1 = 0.00068	0.0175	–
308.15 K, m1 = 0.00071	0.0182	–
308.15 K, m1 = 0.00075	0.0193	–
308.15 K, m1 = 0.0008	0.0203	–
308.15 K, m1 = 0.00083	0.0209	–
308.15 K, m1 = 0.00087	0.0217	–
308.15 K, m1 = 0.00091	0.0225	–
308.15 K, m1 = 0.00095	0.0232	–
308.15 K, m1 = 0.001	0.024	–
308.15 K, m1 = 0.00105	0.0248	–
308.15 K, m1 = 0.00111	0.0257	–
308.15 K, m1 = 0.00118	0.0266	–
308.15 K, m1 = 0.00125	0.0275	–
308.15 K, m1 = 0.00133	0.0284	–
308.15 K, m1 = 0.00143	0.0294	–
308.15 K, m1 = 0.00154	0.0306	–
308.15 K, m1 = 0.0016	0.0312	–
308.15 K, m1 = 0.00167	0.0318	–
308.15 K, m1 = 0.00174	0.0325	–
308.15 K, m1 = 0.00182	0.0332	–
308.15 K, m1 = 0.0019	0.0339	–
308.15 K, m1 = 0.002	0.0346	–
313.15 K, m1 = 0.00057	0.0163	–
313.15 K, m1 = 0.00061	0.0171	–
313.15 K, m1 = 0.00065	0.0182	–
313.15 K, m1 = 0.00068	0.0191	–
313.15 K, m1 = 0.00071	0.02	–
313.15 K, m1 = 0.00075	0.021	–
313.15 K, m1 = 0.0008	0.0222	–
313.15 K, m1 = 0.00083	0.023	–
313.15 K, m1 = 0.00087	0.024	–
313.15 K, m1 = 0.00091	0.0248	–
313.15 K, m1 = 0.00095	0.0259	–
313.15 K, m1 = 0.001	0.0269	–
313.15 K, m1 = 0.00105	0.0278	–
313.15 K, m1 = 0.00111	0.0288	–
313.15 K, m1 = 0.00118	0.0299	–
313.15 K, m1 = 0.00125	0.0308	–
313.15 K, m1 = 0.00133	0.0321	–
313.15 K, m1 = 0.00143	0.0333	–
313.15 K, m1 = 0.00154	0.0347	–
313.15 K, m1 = 0.0016	0.0353	–
313.15 K, m1 = 0.00167	0.036	–
313.15 K, m1 = 0.00174	0.0368	–
313.15 K, m1 = 0.00182	0.0376	–
313.15 K, m1 = 0.0019	0.0384	–
313.15 K, m1 = 0.002	0.0392	–
318.15 K, m1 = 0.00057	0.0184	–
318.15 K, m1 = 0.00061	0.0193	–
318.15 K, m1 = 0.00065	0.0206	–
318.15 K, m1 = 0.00069	0.0222	–
318.15 K, m1 = 0.00074	0.0237	–
318.15 K, m1 = 0.0008	0.0254	–
318.15 K, m1 = 0.00085	0.0265	–
318.15 K, m1 = 0.00091	0.0281	–
318.15 K, m1 = 0.00095	0.0292	–
318.15 K, m1 = 0.001	0.0302	–
318.15 K, m1 = 0.00104	0.031	–
318.15 K, m1 = 0.00109	0.0318	–
318.15 K, m1 = 0.00114	0.0328	–
318.15 K, m1 = 0.00119	0.0337	–
318.15 K, m1 = 0.00125	0.0347	–
318.15 K, m1 = 0.00132	0.0358	–
318.15 K, m1 = 0.00139	0.0368	–
318.15 K, m1 = 0.00147	0.038	–
318.15 K, m1 = 0.00156	0.0393	–
318.15 K, m1 = 0.00167	0.0406	–
318.15 K, m1 = 0.00172	0.0413	–
318.15 K, m1 = 0.00179	0.042	–
318.15 K, m1 = 0.00185	0.0428	–
318.15 K, m1 = 0.00192	0.0437	–
318.15 K, m1 = 0.002	0.0446	–
323.15 K, m1 = 0.00065	0.022	–
323.15 K, m1 = 0.00069	0.0235	–
323.15 K, m1 = 0.00074	0.025	–
323.15 K, m1 = 0.0008	0.0271	–
323.15 K, m1 = 0.00085	0.0288	–
323.15 K, m1 = 0.00091	0.0305	–
323.15 K, m1 = 0.00095	0.0317	–
323.15 K, m1 = 0.001	0.0331	–
323.15 K, m1 = 0.00104	0.0343	–
323.15 K, m1 = 0.00109	0.0355	–
323.15 K, m1 = 0.00114	0.0367	–
323.15 K, m1 = 0.00119	0.038	–
323.15 K, m1 = 0.00125	0.0393	–
323.15 K, m1 = 0.00132	0.0406	–
323.15 K, m1 = 0.00139	0.0418	–
323.15 K, m1 = 0.00147	0.0433	–
323.15 K, m1 = 0.00156	0.0443	–
323.15 K, m1 = 0.00167	0.0455	–
323.15 K, m1 = 0.00172	0.0464	–
323.15 K, m1 = 0.00179	0.0473	–
323.15 K, m1 = 0.00185	0.0482	–
323.15 K, m1 = 0.00192	0.0491	–
323.15 K, m1 = 0.002	0.0501	–
